Here are results for four compounds from ChEMBL document CHEMBL1914391, “Design and synthesis of biotinylated inositol 1,3,4,5-tetrakisphosphate targeting Grp1 pleckstrin homology domain” (Bioorg Med Chem, 2011).

For test [1], the target named is T1, Cytohesin-3 (Rattus norvegicus, UniProt P97696).
T1 sequence (P97696 whole entry): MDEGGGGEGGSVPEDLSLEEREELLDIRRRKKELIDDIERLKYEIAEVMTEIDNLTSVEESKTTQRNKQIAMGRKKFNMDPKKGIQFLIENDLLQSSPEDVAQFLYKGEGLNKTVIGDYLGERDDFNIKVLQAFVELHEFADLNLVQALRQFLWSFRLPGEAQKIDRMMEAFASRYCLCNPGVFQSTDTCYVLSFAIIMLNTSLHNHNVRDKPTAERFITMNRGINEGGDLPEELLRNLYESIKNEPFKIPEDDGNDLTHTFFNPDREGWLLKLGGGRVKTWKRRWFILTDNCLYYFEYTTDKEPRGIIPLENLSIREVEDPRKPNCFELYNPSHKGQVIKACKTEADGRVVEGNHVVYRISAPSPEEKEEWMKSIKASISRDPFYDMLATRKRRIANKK
The test can be described thus: Binding affinity to recombinant rat brain Grp1 PH domain (amino acids 1 to 120) by SPR analysis.

Test [2] addresses T1, Cytohesin-3. Kind of test: Binding affinity to recombinant rat brain Grp1 PH domain (amino acids 1 to 120) after 10 mins by pull-down assay.
Test [3] has as its target T2, 1-phosphatidylinositol 4,5-bisphosphate phosphodiesterase delta-1 (Homo sapiens, UniProt P51178).
T2 sequence (P51178 whole entry): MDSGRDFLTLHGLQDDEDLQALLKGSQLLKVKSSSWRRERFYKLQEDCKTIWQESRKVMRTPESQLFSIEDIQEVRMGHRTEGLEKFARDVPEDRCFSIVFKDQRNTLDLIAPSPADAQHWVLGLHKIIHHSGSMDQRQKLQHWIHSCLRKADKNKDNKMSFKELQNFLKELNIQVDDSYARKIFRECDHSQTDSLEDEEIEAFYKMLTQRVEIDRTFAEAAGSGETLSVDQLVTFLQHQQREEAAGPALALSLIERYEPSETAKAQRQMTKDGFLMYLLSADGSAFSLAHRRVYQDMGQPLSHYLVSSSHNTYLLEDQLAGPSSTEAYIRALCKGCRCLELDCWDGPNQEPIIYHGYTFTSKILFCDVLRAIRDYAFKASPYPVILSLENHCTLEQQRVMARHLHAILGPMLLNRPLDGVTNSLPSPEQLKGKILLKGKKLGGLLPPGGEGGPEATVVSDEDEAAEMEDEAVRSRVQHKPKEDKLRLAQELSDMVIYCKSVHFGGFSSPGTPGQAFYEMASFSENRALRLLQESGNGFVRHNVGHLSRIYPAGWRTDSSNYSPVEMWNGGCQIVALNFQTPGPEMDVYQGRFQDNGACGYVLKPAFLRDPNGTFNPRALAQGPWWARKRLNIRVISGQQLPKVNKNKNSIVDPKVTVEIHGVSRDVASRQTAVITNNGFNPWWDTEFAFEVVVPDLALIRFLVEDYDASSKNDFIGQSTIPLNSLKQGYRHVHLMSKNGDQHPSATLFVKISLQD
The test can be described thus: Binding affinity to PLCdelta1 PH domain.

Test [4] deals with T3, 1-phosphatidylinositol 4,5-bisphosphate phosphodiesterase delta-1 (Rattus norvegicus, UniProt P10688).
T3 sequence (P10688 whole entry): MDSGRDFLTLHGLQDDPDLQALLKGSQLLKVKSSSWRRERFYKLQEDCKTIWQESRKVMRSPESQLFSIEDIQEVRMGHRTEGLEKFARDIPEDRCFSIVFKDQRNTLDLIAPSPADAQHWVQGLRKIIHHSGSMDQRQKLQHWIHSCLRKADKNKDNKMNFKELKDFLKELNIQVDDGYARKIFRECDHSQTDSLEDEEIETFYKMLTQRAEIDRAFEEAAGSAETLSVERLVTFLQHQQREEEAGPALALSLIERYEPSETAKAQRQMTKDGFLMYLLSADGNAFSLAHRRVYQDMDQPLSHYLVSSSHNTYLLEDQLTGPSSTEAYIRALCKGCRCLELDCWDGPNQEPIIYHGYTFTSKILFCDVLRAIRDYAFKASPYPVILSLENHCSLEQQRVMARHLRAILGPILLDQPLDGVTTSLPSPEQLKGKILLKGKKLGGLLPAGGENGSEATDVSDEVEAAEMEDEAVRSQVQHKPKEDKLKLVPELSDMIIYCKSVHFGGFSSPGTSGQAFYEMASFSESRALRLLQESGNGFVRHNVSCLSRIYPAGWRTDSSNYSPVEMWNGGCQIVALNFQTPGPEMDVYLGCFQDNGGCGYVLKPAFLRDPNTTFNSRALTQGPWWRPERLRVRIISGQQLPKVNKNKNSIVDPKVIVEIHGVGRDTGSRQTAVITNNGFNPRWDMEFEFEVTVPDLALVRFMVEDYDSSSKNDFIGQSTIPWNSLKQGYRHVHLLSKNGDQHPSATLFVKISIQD
The test can be described thus: Binding affinity to recombinant rat brain PLCdelta1 PH domain (amino acids 11 to 140) by SPR analysis.

By Kd is commonly meant the free concentration of one partner at which half of the binding sites on the other are occupied at equilibrium, for simple one-to-one binding.

Take `O=C(CCCC[C@@H]1SC[C@@H]2NC(=O)N[C@@H]21)NCCCCCCOP(=O)(O)O[C@H]1[C@H](O)[C@@H](OP(=O)(O)O)[C@H](OP(=O)(O)O)[C@@H](OP(=O)(O)O)[C@H]1O`: the Kd at Cytohesin-3 [1] was 0.3 µM; on Cytohesin-3 [2], 0.14 µM; in test [3] it was 0.25 µM; in test [4] it was more than 5 µM.
Turning to `O=C(CCCC[C@@H]1SC[C@@H]2NC(=O)N[C@@H]21)NCCCCCCOP(=O)(O)O[C@@H]1[C@H](O)[C@H](O)[C@@H](OP(=O)(O)O)[C@H](OP(=O)(O)O)[C@H]1O`, the figures for the Kd (at Cytohesin-3 [1]; in test [4]) were more than 1 µM and 2.2 µM, respectively.
For `O=C(CCCC[C@@H]1SC[C@@H]2NC(=O)N[C@@H]21)NCCCCCCOP(=O)(O)O[C@@H]1[C@@H](O)[C@H](OP(=O)(O)O)[C@@H](OP(=O)(O)O)[C@H](O)[C@@H]1O` the same measures were more than 1 µM and more than 5 µM.
For `O=P(O)(O)O[C@H]1[C@H](O)[C@@H](OP(=O)(O)O)[C@H](OP(=O)(O)O)[C@@H](OP(=O)(O)O)[C@H]1O`, the Kd at Cytohesin-3 [2] was 0.1 µM.
